Data: publication PMC3458928, “Co-Factor Binding Confers Substrate Specificity to Xylose Reductase from Debaryomyces hansenii” (PLoS ONE, 2012)
“And” between values parts separate entries of the source, which are not always exact repeats. Equal entries are not always repeated. Where two headings read alike, the source gives them in different places.

Assays:
holo-DhXR [1] = target: T1, holo-DhXR (Debaryomyces hansenii, UniProt Q6BLI9); experiment: Steady state kinetics of carbonyl substrate reduction by holo-DhXR (A340, NADPH); assay type: biochemical; settings: for Vmax / k cat: 25 °C, pH 7.0, 0.15 mM NADPH, 0.18 µM enzyme; for Km/Kd ratio (net affinity loss): Km of holoenzyme vs Kd of apoenzyme
Method: (§1) The xylose reductase activities of recombinant DhXR was determined spectrophotometrically by monitoring the change in A340 upon reduction of NADPH to NADP. The standard assay mixture contained 50 mM KPO4, pH 7.0, 100 mM sugar substrate, 0.3 mM NADPH, 0.18 µM of enzyme. Single point activity studies were performed at 40°C and all reactions were started by the addition of enzyme to a final volume of 0.8 ml (in standard assay condition). […] Errors for the activity assays were calculated from triplicate experiments. The kinetic parameters were determined using a range of substrate concentrations. Here, the reaction was performed at 25°C and assay mixture contained 50 mM KPO4, pH 7.0, 0.15 mM NADPH, 0.18 µM of enzyme and varying substrate concentrations. Steady state kinetics data were fit to Michaelis-Menten model, v = Vmax * [S]/([S]+Km), where Vmax, maximal velocity; Km, Michaelis-Menten constant; S, substrate concentration, and v, initial velocity.
To understand the specificity determining component in catalysis, we studied the steady state kinetics of holo-DhXR towards different carbonyl substrates. […] Therefore, all kinetic data analyzed fitting to Michaelis-Menten model by Non-Linear Least Squares method. (Fig. 4A). Steady state kinetic parameters are also determined for other sugars (table 3, Fig. 4B). […] We compared the Km/Kd ratio as an indicator of net affinity loss for a given substrate (Fig. S5).
In order to further verify that holoenzyme discriminates between substrate and non-substrate sugars, we challenged the catalysis of D-xylose by adding non-substrate sugars during kinetic experiments. […] We studied the kinetics of D-xylose reduction by holo-DhXR in the presence of fixed concentration (∼40 mM) of three sugars (Fig. 4C).

holo-DhXR [2] = target: T1, holo-DhXR; experiment: Specific activity of DhXR with 100 mM D-xylose in presence of competing sugars; assay type: biochemical
Method: as §1
(§2) Assays were performed at 100 mM D-xylose and concentrations of competing sugars were varied (25 mM to 400 mM). […] Both DhXR and NADPH (20.0 µM) are pre-incubated and fluorescence signal was monitored until no further change. […] It should be noted that D-xylose is the substrate and is very likely to be reduced soon after binding.

DhXR Y47A mutant = DhXR Y47A mutant (Debaryomyces hansenii, UniProt Q6BLI9, Y47A); experiment: biochemical; assay type: binding; settings: for reduction in affinity versus wild type: first site
Method: (§3) Titrations of DhXR with ligands were examined by monitoring the intrinsic tryptophan fluorescence of DhXR using a Varian spectrofluorometer. Experiments were performed in indicated buffers as mentioned in the text. The excitation wavelength and emission wavelengths for monitoring DhXR-ligand interaction were 292 nm and 345 nm respectively. Slit widths were set to 5 nm for all experiments and PMT voltage was adjusted to get maximum signal for a given protein concentration. All experiments were done at 25.0±1°C. Initial readings of both the protein, Fprotein,0 and buffer, Fbuff,0 were taken, with F0 = Fprotein,0–Fbuff,0 defined as the initial fluorescence of the sample. The sample cuvette was then titrated with aliquots of ligands and mixed, and equilibrated for 3–4 minutes before measurement. Data points from five such measurements were averaged to obtain Fave,i. The relative fluorescence quenching upon sugar binding is defined as Qobs,i = (F0–Fave,i)/F0. All measurements were corrected for dilution, and inner filter effects.
(§4) Binding of ligands to DhXR was analyzed using two site binding model. [drawing 1] (1) where Q1 and Q2 are the fluorescence quenching corresponding to one and two ligands bound, respectively; L is concentration of free ligand in solution; K1,obs and K2,obs are association constants for the binding of the first and the second ligand molecule. Errors were calculated from fitting analysis of two independent experiments.
(§5) We tested the activity of all mutants and activities were normalized to the activity of wild type DhXR with respect to its D-xylose reducing activity.

holo-DhXR [3] = target: T1, holo-DhXR; experiment: Single point specific activity of holo-DhXR towards different sugars; assay type: biochemical; settings: saturated sugar concentration (100 mM), 40 °C
Method: as §1

[4] = target: apo-DhXR (wild type xylose reductase) (Debaryomyces hansenii, UniProt Q6BLI9); experiment: Tryptophan fluorescence quenching titration, ligand binding to apo-DhXR wild type; settings: for ratio of first to second intrinsic binding constant: affinity of first vs second ligand molecule
Method: as §3, §4
We examined the binding of D-xylose, xylitol, and NADPH to apo-DhXR. Quenching of tryptophan fluorescence upon ligand binding was used as the signal for monitoring the extent of binding. Apo-DhXR was excited at 292 nm and emission of tryptophan fluorescence was scanned between 300–375 nm (Fig. S2). […] Intrinsic site-specific binding constants are estimated from the macroscopic binding constants obtained from fitting by removing the statistical factors as in eq (2). [drawing 2] (2)

DhXR H109A mutant = DhXR H109A mutant (Debaryomyces hansenii, UniProt Q6BLI9, H109A); experiment: biochemical; assay type: binding
Method: as §3, §4, §5

DhXR K76A mutant = DhXR K76A mutant (Debaryomyces hansenii, UniProt Q6BLI9, K76A); experiment: biochemical; assay type: binding
Method: as §3, §4, §5

DhXR D42A mutant = target: T2, DhXR D42A mutant (Debaryomyces hansenii, UniProt Q6BLI9, D42A); experiment: Fluorescence quenching titration, ligand binding to DhXR D42A mutant
T2 sequence (Q6BLI9 1-317 D42A): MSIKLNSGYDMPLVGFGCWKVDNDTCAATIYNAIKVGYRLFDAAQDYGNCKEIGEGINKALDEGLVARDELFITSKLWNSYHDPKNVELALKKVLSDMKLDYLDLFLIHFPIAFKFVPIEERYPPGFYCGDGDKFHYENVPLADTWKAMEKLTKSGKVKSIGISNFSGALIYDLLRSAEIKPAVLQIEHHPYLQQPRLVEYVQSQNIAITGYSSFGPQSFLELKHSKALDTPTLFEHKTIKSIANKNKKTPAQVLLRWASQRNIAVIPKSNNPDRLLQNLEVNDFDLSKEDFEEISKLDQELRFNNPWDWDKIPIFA
Method: as §3, §4, §5

DhXR-NADPH complex = experiment: Fluorescence titration of pre-formed DhXR-NADPH binary complex; assay type: binding, Debaryomyces hansenii; settings: DhXR pre-incubated with 20.0 µM NADPH
Method: as §3, §2

DhXR N305A mutant = target: T3, DhXR N305A mutant (Debaryomyces hansenii, UniProt Q6BLI9, N305A); experiment: Fluorescence quenching titration, ligand binding to DhXR N305A mutant
T3 sequence (Q6BLI9 1-317 N305A): T2 sequence (Q6BLI9 1-317 D42A)
Method: as §3, §4, §5

DhXR D10A mutant = target: T4, DhXR D10A mutant (Debaryomyces hansenii, UniProt Q6BLI9, D10A); experiment: Fluorescence quenching titration, ligand binding to DhXR D10A mutant
T4 sequence (Q6BLI9 1-317 D10A): T2 sequence (Q6BLI9 1-317 D42A)
Method: as §3, §4, §5

[5] = 25 mM sugar added in 100 mM D-xylose reaction
[6] = 100 mM sugar added in 100 mM D-xylose reaction
[7] = 400 mM sugar added in 100 mM D-xylose reaction
[8] = Kd1,int, wild type apo-DhXR, first site, 25 °C
[9] = read-out: Kd2,int, wild type apo-DhXR, second site, 25 °C

For `O=C[C@H](O)[C@@H](O)[C@@H](O)[C@H](O)CO` [D-galactose], the Vmax (holo-DhXR [1]) was 136.5 ± 9.4 nmol/min, the k cat (holo-DhXR [1]) was 15.2 s⁻¹ and the Specific activity (holo-DhXR [2]; [5]) was 76.8 ± 3.8 nmol/min. For the same compound, the Specific activity (holo-DhXR [2]; [6]) was 84.4 ± 3.3 nmol/min, the Specific activity (holo-DhXR [2]; [7]) was 99.3 ± 4.3 nmol/min and the “reduction in affinity versus wild type” value (DhXR Y47A mutant; Y47A) was 8–10 fold. For the same compound, the “reduction of holoenzyme activity compared with D-xylose” value (holo-DhXR [3]) was 50%.

For `O=C[C@H](O)[C@H](O)[C@H](O)CO` [D-ribose], the Kd [4, 8] was ~10.5 mM and 10.5 mM, the “fold less affinity than D-xylose” value ([4]; first site, apo-DhXR) was ~2 fold and the Kd [4, 9] was 83 ± 7 mM. For the same compound, the Vmax (holo-DhXR [1]) was 93.1 ± 3.2 nmol/min, the k cat (holo-DhXR [1]) was 10.3 s⁻¹ and the “Km/Kd ratio (net affinity loss)” value (holo-DhXR [1]) was 12–15 fold. The Specific activity (holo-DhXR [2]; [5]) was 77.5 ± 3.6 nmol/min, the Specific activity (holo-DhXR [2]; [6]) was 84.7 ± 3.8 nmol/min and the Specific activity (holo-DhXR [2]; [7]) was 78.5 ± 3.1 nmol/min. The Kd (DhXR H109A mutant) was 13 ± 3 mM, the Kd (DhXR K76A mutant) was 10 ± 2 mM and the “reduction in affinity versus wild type” value (DhXR K76A mutant; K76A) was 2 fold. The Kd (DhXR Y47A mutant) was 12 ± 1 mM and the “reduction in affinity versus wild type” value (DhXR Y47A mutant; Y47A) was ~2 fold.

With `O=C[C@H](O)[C@@H](O)[C@H](O)CO` [D-xylose] the Kd (DhXR D42A mutant) was 5.1 ± 0.6 mM, the Kd (DhXR D42A mutant; read-out: Kd2,int, D42A, second site) was 47.6 ± 18 mM and the “binding to DhXR-NADPH complex (fluorescence signal)” value (DhXR-NADPH complex) was “showed further quenching of fluorescence”. The Kd [4, 8] was ~5.3 mM and 5.3 mM, the “ratio of first to second intrinsic binding constant” value [4] was ~4 and the “Hill coefficient, nH” value ([4]; from logarithmic (Hill) plot) was ~0.68. For the same compound, the Kd [4, 9] was 17 mM and 17.2 mM, the “K1,int (intrinsic association constant, first ligand)” value ([4]; wild type apo-DhXR) was 1.9±0.6×10^2 M^−1 and the “K2,int (intrinsic association constant, second ligand)” value ([4]; wild type apo-DhXR) was 5.8±0.1×10^1 M^−1. For the same compound, the “Km/Kd ratio (net affinity loss)” value (holo-DhXR [1]) was 12–15 fold, the Kd (DhXR N305A mutant) was 6.4 ± 2 mM and the Specific activity (holo-DhXR [2]; 100 mM D-xylose alone, 0 mM competing sugar) was 72.5 ± 2.4 nmol/min. It also gave a Kd (DhXR H109A mutant) of 13.3 ± 2 mM, a Kd (DhXR K76A mutant) of 12.8 ± 2 mM and a Kd (DhXR Y47A mutant) of 12.9 ± 2 mM. It also gave a Kd (DhXR D10A mutant) of 6.7 ± 1 mM.

`C[C@H](O)[C@H](O)[C@@H](O)[C@@H](O)C=O` [L-rhamnose] was tested, and the “binding to DhXR-NADPH complex (fluorescence signal)” value (DhXR-NADPH complex) was “cannot bind”, the Kd ([4]; wild type apo-DhXR, first site, 25 °C, read-out: Kd1,int) was 14 ± 3 mM and the Kd ([4]; wild type apo-DhXR, second site, 25 °C, read-out: Kd2,int) was 33 ± 13 mM. For the same compound, the “catalysis in steady state kinetic curves (in words)” value (holo-DhXR [1]; comparison of kinetic curves of different sugars) was “very low activity”, the “Km/Kd ratio (net affinity loss), predicted minimum” value (holo-DhXR [1]; could not be estimated due to insignificant catalysis, minimum predicted) was > 500 fold and the Specific activity (holo-DhXR [2]; [5]) was 76.2 ± 6.4 nmol/min. For the same compound, the Specific activity (holo-DhXR [2]; [6]) was 73.4 ± 2.8 nmol/min, the Specific activity (holo-DhXR [2]; [7]) was 68.7 ± 3.4 nmol/min and the “reduction of holoenzyme activity compared with D-xylose” value (holo-DhXR [3]) was “more than 95%”.

`NC(=O)C1=CN([C@@H]2O[C@H](COP(=O)(O)OP(=O)(O)OC[C@H]3O[C@@H](n4cnc5c(N)ncnc54)[C@H](OP(=O)(O)O)[C@@H]3O)[C@@H](O)[C@H]2O)C=CC1` [NADPH, Nicotinamide adenine dinucleotide phosphate] was tested, and the Kd (DhXR D42A mutant) was 0.01 ± 0.0005 mM, the Kd ([4]; Kd1,int, wild type apo-DhXR, first site, NADPH) was 0.0011 ± 0.0002 mM and the “ratio of first to second intrinsic binding constant” value [4] was ~4. For the same compound, the “affinity of cofactor relative to substrate affinity” value ([4]; apoenzyme) was ~4700 times, the Kd ([4]; read-out: Kd2,int, wild type apo-DhXR, second site, NADPH) was 0.0039 ± 0.0002 mM and the “K1,int (intrinsic association constant, first ligand)” value ([4]; wild type apo-DhXR) was 8.9±0.4×10^5 M^−1. It also gave a Kd (DhXR N305A mutant) of 0.0083 ± 0.002 mM, a Kd (DhXR N305A mutant; read-out: Kd2,int, N305A, second site, NADPH) of 0.09 ± 0.025 mM and a Kd (DhXR H109A mutant) of 0.0055 ± 0.002 mM. The Kd (DhXR H109A mutant; read-out: Kd2,int, H109A, second site, NADPH) was 0.083 ± 0.035 mM, the Kd (DhXR K76A mutant) was 0.01 ± 0.0006 mM and the Kd (DhXR Y47A mutant) was 0.01 ± 0.0007 mM. For the same compound, the Kd (DhXR Y47A mutant; read-out: Kd2,int, Y47A, second site, NADPH) was 0.192 ± 0.026 mM, the Kd (DhXR D10A mutant) was 0.0033 ± 0.0002 mM and the Kd (DhXR D10A mutant; read-out: Kd2,int, D10A, second site, NADPH) was 0.01 ± 0.003 mM.
